Laboratory results: ChEMBL document CHEMBL4665709, “Rational Avoidance of Protease Cleavage Sites and Symmetrical End-Tagging Significantly Enhances the Stability and Therapeutic Potential of Antimicrobial Peptides” (J Med Chem, 2020)
In brackets after ≈: the same amount, converted by molar mass. Where a SMILES comes first, the peptide text is derived from it.

Tests used:
[1] = Therapeutic index, ratio of MHC for human RBC to geometric mean of peptide MIC for Staphylococcus epidermidis ATCC 12228; format: toxicity; settings: human red blood cells (RBC), read-out: TI
[2] = test system: Erythrocyte; assay: Hemolytic activity in human RBC assessed as hemolysis; format: ADME, cell-based
[3] = Therapeutic index, ratio of MHC for human RBC to geometric mean of peptide MIC for Escherichia coli UB1005; format: toxicity; settings: human red blood cells (RBC), read-out: TI
[4] = Therapeutic index, ratio of MHC for human RBC to geometric mean of peptide MIC for Salmonella choleraesuis 503; format: toxicity; settings: human red blood cells (RBC), read-out: TI
[5] = Therapeutic index, ratio of MHC for human RBC to geometric mean of peptide MIC for methicillin-resistant Staphylococcus aureus 43300; format: toxicity; settings: human red blood cells (RBC), read-out: TI
[6] = test system: Staphylococcus aureus; assay: Antibacterial activity against Staphylococcus aureus ATCC 29213 after 18 to 24 hrs by CLSI-based broth microdilution method; format: functional; settings: time hrs 18-24
[7] = test system: Staphylococcus aureus; assay: Antibacterial activity against Staphylococcus aureus ATCC 29213 after 18 to 24 hrs in presence of 6 uM Fe3+ by CLSI-based broth microdilution method; format: functional; settings: time hrs 18-24
[8] = test system: Staphylococcus aureus; assay: Antibacterial activity against Staphylococcus aureus 11011 after 18 to 24 hrs by CLSI-based broth microdilution method; format: functional; settings: time hrs 18-24
[9] = test system: Staphylococcus aureus; assay: Antibacterial activity against methicillin-resistant Staphylococcus aureus 43300 after 18 to 24 hrs by CLSI-based broth microdilution method; format: functional; settings: time hrs 18-24
[10] = test system: Staphylococcus aureus; assay: Antibacterial activity against Staphylococcus aureus ATCC 29213 after 18 to 24 hrs in presence of 150 mM Na+ by CLSI-based broth microdilution method; format: functional; settings: time hrs 18-24
[11] = test system: Escherichia coli; assay: Antibacterial activity against Escherichia coli ATCC 25922 after 18 to 24 hrs in presence of 50% human serum by CLSI-based broth microdilution method; format: functional; settings: time hrs 18-24
[12] = test system: Streptococcus agalactiae; assay: Antibacterial activity against Streptococcus agalactiae H92 after 18 to 24 hrs by CLSI-based broth microdilution method; format: functional; settings: time hrs 18-24
[13] = Therapeutic index, ratio of MHC for human RBC to geometric mean of peptide MIC for Streptococcus agalactiae H92; format: toxicity; settings: human red blood cells (RBC), read-out: TI
[14] = test system: Staphylococcus aureus; assay: Antibacterial activity against Staphylococcus aureus ATCC 29213 after 18 to 24 hrs in presence of 6 uM NH4+ by CLSI-based broth microdilution method; format: functional; settings: time hrs 18-24
[15] = test system: Escherichia coli; assay: Antibacterial activity against Escherichia coli ATCC 25922 after 18 to 24 hrs in presence of 6 uM NH4+ by CLSI-based broth microdilution method; format: functional; settings: time hrs 18-24
[16] = test system: Staphylococcus aureus; assay: Antibacterial activity against Staphylococcus aureus ATCC 29213 after 18 to 24 hrs in presence of 1 mM Mg2+ by CLSI-based broth microdilution method; format: functional; settings: time hrs 18-24
[17] = test system: Salmonella typhimurium; assay: Antibacterial activity against Salmonella typhimurium 14028 after 18 to 24 hrs by CLSI-based broth microdilution method; format: functional, Salmonella enterica subsp. enterica serovar Typhimurium; settings: Salmonella enterica, time hrs 18-24
[18] = Antibacterial activity against Salmonella pullorum 7913 after 18 to 24 hrs by CLSI-based broth microdilution method; format: functional, Salmonella enterica subsp. enterica serovar Pullorum; settings: Salmonella enterica, time hrs 18-24
[19] = test system: Salmonella enterica; assay: Antibacterial activity against Salmonella choleraesuis 503 after 18 to 24 hrs by CLSI-based broth microdilution method; format: functional; settings: time hrs 18-24
[20] = Stability of compound at 100 degreeC after 30 to 90 mins; format: physicochemical; settings: time 30-90 min
[21] = Therapeutic index, ratio of MHC for human RBC to geometric mean of peptide MIC for Escherichia coli ATCC 25922; format: toxicity; settings: human red blood cells (RBC), read-out: TI
[22] = test system: Escherichia coli; assay: Antibacterial activity against Escherichia coli UB1005 after 18 to 24 hrs by CLSI-based broth microdilution method; format: functional; settings: time hrs 18-24
[23] = test system: Escherichia coli; assay: Antibacterial activity against Escherichia coli ATCC 25922 after 18 to 24 hrs in presence of 4.5 mM K+ by CLSI-based broth microdilution method; format: functional; settings: time hrs 18-24
[24] = test system: Staphylococcus aureus; assay: Antibacterial activity against Staphylococcus aureus ATCC 29213 after 18 to 24 hrs in presence of 8 uM Zn2+ by CLSI-based broth microdilution method; format: functional; settings: time hrs 18-24
[25] = test system: Escherichia coli; assay: Antibacterial activity against Escherichia coli ATCC 25922 after 18 to 24 hrs in presence of 150 mM Na+ by CLSI-based broth microdilution method; format: functional; settings: time hrs 18-24
[26] = test system: Staphylococcus aureus; assay: Antibacterial activity against Staphylococcus aureus ATCC 29213 after 18 to 24 hrs in presence of 100% human serum by CLSI-based broth microdilution method; format: functional; settings: time hrs 18-24
[27] = test system: Escherichia coli; assay: Antibacterial activity against Escherichia coli ATCC 25922 after 18 to 24 hrs in presence of 6 uM Fe3+ by CLSI-based broth microdilution method; format: functional; settings: time hrs 18-24
[28] = test system: Enterococcus faecalis; assay: Antibacterial activity against Enterococcus faecalis ATCC 29212 after 18 to 24 hrs by CLSI-based broth microdilution method; format: functional; settings: time hrs 18-24
[29] = Cytotoxicity against HEK-293T cells assessed as cell viability at 128 uM by MTT assay relative to control; format: cell-based; settings: human, read-out: Activity
[30] = Therapeutic index, ratio of MHC for human RBC to geometric mean of peptide MIC for Salmonella typhimurium 7731; format: toxicity; settings: human red blood cells (RBC), read-out: TI
[31] = test system: Salmonella typhimurium; assay: Antibacterial activity against Salmonella typhimurium 7731 after 18 to 24 hrs by CLSI-based broth microdilution method; format: functional, Salmonella enterica subsp. enterica serovar Typhimurium; settings: Salmonella enterica, time hrs 18-24
[32] = test system: Escherichia coli; assay: Antibacterial activity against Escherichia coli ATCC 25922 after 18 to 24 hrs by CLSI-based broth microdilution method; format: functional; settings: time hrs 18-24
[33] = test system: Escherichia coli; assay: Antibacterial activity against Escherichia coli ATCC 25922 after 18 to 24 hrs in presence of 100% human serum by CLSI-based broth microdilution method; format: functional; settings: time hrs 18-24
[34] = test system: Staphylococcus aureus; assay: Antibacterial activity against Staphylococcus aureus ATCC 29213 after 18 to 24 hrs in presence of 4.5 mM K+ by CLSI-based broth microdilution method; format: functional; settings: time hrs 18-24
[35] = test system: Staphylococcus aureus; assay: Antibacterial activity against Staphylococcus aureus ATCC 29213 after 18 to 24 hrs in presence of 25% human serum by CLSI-based broth microdilution method; format: functional; settings: time hrs 18-24
[36] = test system: Escherichia coli; assay: Antibacterial activity against Escherichia coli ATCC 25922 after 18 to 24 hrs in presence of 8 uM Zn2+ by CLSI-based broth microdilution method; format: functional; settings: time hrs 18-24
[37] = test system: Escherichia coli; assay: Antibacterial activity against Escherichia coli ATCC 25922 after 18 to 24 hrs in presence of 1 mM Mg2+ by CLSI-based broth microdilution method; format: functional; settings: time hrs 18-24
[38] = Therapeutic index, ratio of MHC for human RBC to geometric mean of peptide MIC for Staphylococcus aureus 11011; format: toxicity; settings: human red blood cells (RBC), read-out: TI
[39] = test system: Staphylococcus aureus; assay: Antibacterial activity against Staphylococcus aureus ATCC 29213 after 18 to 24 hrs in presence of 50% human serum by CLSI-based broth microdilution method; format: functional; settings: time hrs 18-24
[40] = test system: Staphylococcus epidermidis; assay: Antibacterial activity against Staphylococcus epidermidis ATCC 12228 after 18 to 24 hrs by CLSI-based broth microdilution method; format: functional; settings: time hrs 18-24
[41] = Therapeutic index, ratio of MHC for human RBC to geometric mean of peptide MIC for Staphylococcus aureus ATCC 29213; format: toxicity; settings: human red blood cells (RBC), read-out: TI
[42] = Therapeutic index, ratio of MHC for human RBC to geometric mean of peptide MIC for Salmonella pullorum 7913; format: toxicity; settings: human red blood cells (RBC), read-out: TI
[43] = Hemolytic activity in human RBC assessed as hemolysis at 1 to 128 uM relative to control; format: ADME, cell-based, Erythrocyte; settings: human red blood cells (RBC), dose 1-128 µM, read-out: Activity
[44] = Therapeutic index, ratio of MHC for human RBC to geometric mean of peptide MIC for Enterococcus faecalis ATCC 29212; format: toxicity; settings: human red blood cells (RBC), read-out: TI
[45] = Therapeutic index, ratio of MHC for human RBC to geometric mean of peptide MIC for Salmonella typhimurium 14028; format: toxicity; settings: human red blood cells (RBC), read-out: TI
[46] = test system: Escherichia coli; assay: Antibacterial activity against Escherichia coli ATCC 25922 after 18 to 24 hrs in presence of 25% human serum by CLSI-based broth microdilution method; format: functional; settings: time hrs 18-24
[47] = Cytotoxicity against mouse RAW264.7 cells assessed as cell viability at 128 uM by MTT assay relative to control; format: cell-based; settings: read-out: Activity

CC[C@H](C)[C@H](N)C(=O)N[C@H](C(=O)N[C@@H](CS)C(=O)N[C@@H](CCCNC(=N)N)C(=O)N[C@@H](CCCCN)C(=O)N1CCC[C@H]1C(=O)N[C@H](C(=O)N[C@H](C(=O)N[C@@H](CS)C(=O)N[C@@H](CCCNC(=N)N)C(=O)N[C@@H](CCCCN)C(=O)N1CCC[C@H]1C(=O)N[C@H](C(=O)N[C@H](C(=O)N[C@@H](CS)C(=O)N[C@@H](CCCNC(=N)N)C(=O)N[C@@H](CCCCN)C(=O)N1CCC[C@H]1C(=O)N[C@H](C(=O)N[C@H](C(=O)N[C@@H](CS)C(=O)N[C@@H](CCCNC(=N)N)C(=O)N[C@@H](CCCCN)C(=O)N1CCC[C@H]1C(=O)N[C@H](C(=O)N[C@H](C(N)=O)[C@@H](C)CC)[C@@H](C)CC)[C@@H](C)CC)[C@@H](C)CC)[C@@H](C)CC)[C@@H](C)CC)[C@@H](C)CC)[C@@H](C)CC)[C@@H](C)CC (H-IICRKPIICRKPIICRKPIICRKPII-NH2)
selectivity ratio [1]: 6.35
MHC [2]: > 128 µM
selectivity ratio [3]: 50.8
selectivity ratio [4]: 50.8
selectivity ratio [5]: 6.35
MIC [6]: 32 µM (≈ 98.8 µg/mL)
MIC [7]: 32 µM
MIC [8]: 16 µM (≈ 49.4 µg/mL)
MIC [9]: 16 µM (≈ 49.4 µg/mL)
MIC [10]: 64 µM
MIC [11]: 4 µM
MIC [12]: 16 µM (≈ 49.4 µg/mL)
selectivity ratio [13]: 6.35
MIC [14]: 32 µM
MIC [15]: 2 µM
MIC [16]: 64 µM
MIC [17]: 2 µM (≈ 6.17 µg/mL)
MIC [18]: 8 µM (≈ 24.7 µg/mL)
MIC [19]: 4 µM (≈ 12.3 µg/mL)
Stabilty [20]: Stable
selectivity ratio [21]: 50.8
MIC [22]: 1 µM (≈ 3.09 µg/mL)
MIC [23]: 2 µM
MIC [24]: 32 µM
MIC [25]: 8 µM
MIC [26]: 64 µM
MIC [27]: 2 µM
MIC [28]: 32 µM (≈ 98.8 µg/mL)
viability at 128 µM [29]: > 90%
selectivity ratio [30]: 50.8
MIC [31]: 2 µM (≈ 6.17 µg/mL)
MIC [32]: 2 µM (≈ 6.17 µg/mL)
MIC [33]: 16 µM
MIC [34]: 64 µM
MIC [35]: 64 µM
MIC [36]: 2 µM
MIC [37]: 8 µM
selectivity ratio [38]: 6.35
MIC [39]: 64 µM
MIC [40]: 16 µM (≈ 49.4 µg/mL)
selectivity ratio [41]: 6.35
selectivity ratio [42]: 50.8
hemolysis at up to 128 µM [43]: < 5%
selectivity ratio [44]: 6.35
selectivity ratio [45]: 50.8
MIC [46]: 4 µM
viability at 128 µM [47]: > 90%
